Laboratory results published in PubChem BioAssay (NCI).
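Five concentrations, 48 hours, 96-well plates. TGI denotes the concentration required for complete inhibition of growth.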

Assays:
Experiment in all cases: NCI tumour cell line growth inhibition, 48 h
[1] = test system: IGROV1 ovarian
[2] = test system: RXF 393 renal
[3] = test system: MOLT-4 leukemia
[4] = test system: EKVX NSCLC
[5] = test system: UACC-62 melanoma
[6] = test system: SR leukemia
[7] = test system: UACC-257 melanoma
[8] = test system: MALME-3M melanoma
[9] = test system: U251 CNS
[10] = test system: SN12C renal
[11] = test system: CAKI-1 renal
[12] = test system: SNB-19 CNS
[13] = test system: RPMI-8226 leukemia
[14] = test system: HT29 colon
[15] = test system: COLO 205 colon
[16] = test system: CCRF-CEM leukemia
[17] = test system: SF-295 CNS
[18] = test system: OVCAR-8 ovarian
[19] = test system: SF-539 CNS
[20] = test system: M14 melanoma
[21] = test system: XF 498 CNS
[22] = test system: KM20L2 colon
[23] = test system: NCI-H226 lung
[24] = test system: A498 renal
[25] = test system: K-562 leukemia
[26] = test system: 786-0 renal
[27] = test system: SW-620 colon
[28] = test system: NCI-H23 lung
[29] = test system: KM12 colon
[30] = test system: LOX IMVI melanoma
[31] = test system: OVCAR-4 ovarian
[32] = test system: SNB-75 CNS
[33] = test system: SK-MEL-5 melanoma
[34] = test system: A549 NSCLC
[35] = test system: HL-60(TB) leukemia
[36] = test system: NCI-H522 lung
[37] = test system: DLD-1 colon
[38] = test system: HOP-62 NSCLC
[39] = test system: LXFL 529 NSCLC
[40] = test system: M19-MEL melanoma
[41] = test system: ACHN renal
[42] = test system: NCI-H460 lung
[43] = test system: SK-MEL-2 melanoma
[44] = test system: HCT-15 colon
[45] = test system: DMS 273 small cell lung
[46] = test system: HCC-2998 colon
[47] = test system: SF-268 CNS
[48] = test system: UO-31 renal
[49] = test system: HOP-18 NSCLC
[50] = test system: SNB-78 CNS
[51] = test system: SK-MEL-28 melanoma
[52] = test system: TK-10 renal
[53] = test system: OVCAR-5 ovarian
[54] = test system: HOP-92 NSCLC
[55] = test system: OVCAR-3 ovarian
[56] = test system: SK-OV-3 ovarian
[57] = test system: HCT-116 colon
[58] = test system: DMS 114 small cell lung

Measured: TGI

COc1ccc(S(=O)(=O)N/N=C/CN2C(=O)c3ccccc3C2=O)cc1
> 100 µM: [1] | [2] | [3] | [4] | [5] | [6] | [7] | [8] | [9] | [10] | [11] | [12] | [13] | [14] | [15] | [16] | [17] | [18] | [19] | [20] | [21] | [22] | [23] | [24] | [25] | [26] | [27] | [28] | [29] | [30] | [31] | [32] | [33] | [34] | [35] | [36] | [37] | [38] | [39] | [40] | [41] | [42] | [43] | [44] | [45] | [46]

COC1=CC(=O)C2C(C1=O)[C@@H]1c3ccccc3OC[C@H]21 (stereo partly specified)
> 100 µM: [2] | [3] | [4] | [8] | [9] | [47] | [11] | [48] | [49] | [50] | [12] | [13] | [51] | [14] | [15] | [16] | [52] | [17] | [18] | [19] | [20] | [22] | [23] | [24] | [53] | [25] | [54] | [26] | [27] | [28] | [29] | [30] | [55] | [31] | [32] | [33] | [34] | [56] | [35] | [57] | [36] | [37] | [38] | [39] | [58] | [41] | [42] | [43] | [45] | [46]
